Experimental data published in patent US9492470B2, “Use of HMGA-targeted phosphorothioate DNA aptamers to suppress carcinogenic activity and increase sensitivity to chemotherapy agents in human cancer cells” (MIAMI UNIVERSITY, priority 2012, dated 2016).
In the oligonucleotide strings, read from the 5' end, every base follows the letter of its sugar. An asterisk marks phosphorothioate; unmarked linkages are phosphodiester. Other units and linkages are bracketed, terminal groups are in braces. A string of capitals states the bases alone. d = 2'-deoxy (DNA)

Legend:
HMGA1 = target: T1, HMGA1 (Homo sapiens, UniProt P17096); assay: Electrophoretic mobility shift assay (EMSA), HMGA1 competitive binding against ATf10 DNA; conditions: for formation of HMGA/ATf10 DNA complex in presence of competitor DNA: equal amounts of ATf10 and CG10 or Mix10, ATf10 DNA:HMGA1 1:1
T1 construct: The cDNA for full length HMGA1b was cloned into pET-30b; made in house; host or cells: Escherichia coli BL21 (DE3)
T1 sequence (P17096 1-96 isoform P17096-2): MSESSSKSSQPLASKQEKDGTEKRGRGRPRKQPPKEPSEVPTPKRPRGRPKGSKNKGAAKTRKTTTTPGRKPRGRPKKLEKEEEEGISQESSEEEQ
Procedure: The cDNA for full length HMGA1b was cloned into pET-30b and overexpressed in Eschericia coli (E. Coli) BL21 (DE3). E. coli expressing HMGA1b was cultured at 37° C. to an OD600 measurement of 0.8 to 1.0 OD600. Protein expression was induced by the addition of 1 mM IPTG and shaking at 37° C. for 4-6 hours. HMGA1 was purified by trichloroacetic acid precipitation as described in R. Reeves, HMGA proteins: isolation, biochemical modifications, and nucleosome interactions. Methods in enzymology 375 (2004) 297-322, the disclosure of which is incorporated herein by reference. Overexpressed HMGA1b was further purified with a Sephadex G-25 column in H2O and lyophilized using a standard freezedrying procedure. The samples were resolublized in a 25 mM Tris-HCl (pH 6.5), 50 mM NaCl buffer for analysis.
The following 28-mer oligonucleotides were purchased from Integrated DNA Technologies (Coralville, Iowa, USA): ATf10 5′-(56FAM)-[…]-3′ (SEQ ID NO: 4), and ATs10 5′-GGGT*T*T*T*T*T*T*T*T*T*[…]-3′ (SEQ ID NO: 5) (the “*” indicates the location of phosphorothioate linkage). ATf10 contained a fluorescence tag to serve as a marker for later analysis. […] AT10f was annealed with its complementary strand without a fluorescence tag, and ATs10 was annealed with a strand with no sulfur substitution. […]
The HMGA protein samples were prepared in 25 mM Tris-HCl (pH 6.5), 50 mM NaCl, and the concentrations determined based on UV […] absorbance (ε=38,200 mol-1 cm-1). […] The DNA was detected at 495 nm using the VersaDoc™ Imaging System Model 3000 from BIO-RAD Laboratories, Inc. of Hercules, Calif. […]
In order to determine if HMGA1 DNA binding activity was affected by sulfur substitution in the DNA phosphodiester backbone, fluorescence labeled DNA (ATf10 DNA) was used in competitive binding assays against various sulfur substituted DNAs where different ratios of ATf10 DNA and ATs10 DNA were added to a constant amount of purified HMGA1 (FIG. 1A). […]
Since ATs10 DNA has no fluorescence label, no signal could be detected when only ATs10DNA was added to HMGA1 (FIG. 1A, lane 9). […]

[1] = cited from earlier work

Compound | formation of HMGA/ATf10 DNA complex in presence of competitor DNA (HMGA1) | other results
ATs10: 28-mer oligonucleotide with phosphorothioate linkages in the T tract (SEQ ID NO: 5) (DNA dGdGdGdT*dT*dT*dT*dT*dT*dT*dT*dT*dT*dCdGdCdGdGdCdGdGdCdCdCdCdGdCdG; annealed with complementary strand) | – | ATf10 DNA detected in the unshifted position (HMGA1; 1:1 ratio of ATf10 DNA to ATs10 DNA, ATf10 DNA to HMGA1 1:1.5 (FIG. 1A, lane 4)): approximately half
CG10: negative control DNA containing only a mixture of C and G (SEQ ID NO: 6) (DNA GGGCCCCCCCCCCCGCGGCGGCCCCGCG; DNA, all phosphodiester, methylation of C not given here) | still observed | –
NC(=O)OC[C@H]1c2c(O)cc(C=O)cc2N2CC3N[C@@H]3[C@]1(O)O2 (stereo partly shown) [FR900482] | – | toxicity in humans [1]: high toxicity
Mix10: negative control DNA, random sequence of A, T, C, G with no AT-stretch (SEQ ID NO: 7) (DNA GGGCGTGACTGAGCGCGGCGGCCCCGCG; DNA, all phosphodiester, methylation of C not given here) | still observed | –
